Publication PMC9307114, “Discovery and SAR analysis of phenylbenzo[d][1,3]dioxole-based proprotein convertase subtilisin/kexin type 9 inhibitors” (Journal of Enzyme Inhibition and Medicinal Chemistry, 2022)

Key:
[1] = biological target: PCSK9/LDLR PPI (Homo sapiens, UniProt Q8NBP7); experiment: PCSK9-LDLR TR-FRET assay (PCSK9/LDLR PPI inhibitory screening); type: binding; conditions: for inhibition at 10 µM: mean of three experiments, read-out: PCSK9 percentage inhibitory rate
Method: The PCSK9/LDLR time-resolved fluorescence resonance energy transfer (TR-FRET) assay was performed to evaluate the activity of synthesised compounds in inhibition of PCSK9-LDLR binding. The A series compounds were firstly synthesised for the PCSK9/LDLR PPI inhibitory test. […] Therefore, a group of A12 derivatives (B series) were synthesised with 4-chlorobenzyl substituted in the amino group and various substitutions introduced to the carboxylic group. […] To confirm whether the 4-chloromethyl group is essential for the PPI inhibitory activity, a new series of compounds (C series) were synthesised with the 4-chloromethyl group replaced by 4-methoxymethyl moiety. The inhibitory activity was observed, most likely resulting from the 4-methoxymethyl substitution (Table 3).
The compounds were dissolved in 100% DMSO; then 2 µL of the dilution was added to a 20 µL of reaction to keep […] in all of reactions. The binding reaction was conducted at room temperature. The reaction mixture in assay buffer contains PCSK9, the indicated amount of the inhibitor, ligand LDLR, and the reaction dyes. The reaction mixture was incubated for 120 min before detection of the TR-FRET signal. Fluorescence signals for both the donor and acceptor dyes were measured using a Tecan Infinite M1000 plate reader. TR-FRET was recorded as the ratio of the fluorescence of the acceptor and the donor dyes (acceptor/donor). The TR-FRET data were analysed using Graphpad Prism software.

[2] = tested on: HepG2 cells; experiment: MTT assay on HepG2 cells; type: cell-based; conditions: Homo sapiens, mean of three experiments, read-out: HepG2 percentage inhibitory rate

PCSK9/LDLR PPI, sequence (Q8NBP7 153-692): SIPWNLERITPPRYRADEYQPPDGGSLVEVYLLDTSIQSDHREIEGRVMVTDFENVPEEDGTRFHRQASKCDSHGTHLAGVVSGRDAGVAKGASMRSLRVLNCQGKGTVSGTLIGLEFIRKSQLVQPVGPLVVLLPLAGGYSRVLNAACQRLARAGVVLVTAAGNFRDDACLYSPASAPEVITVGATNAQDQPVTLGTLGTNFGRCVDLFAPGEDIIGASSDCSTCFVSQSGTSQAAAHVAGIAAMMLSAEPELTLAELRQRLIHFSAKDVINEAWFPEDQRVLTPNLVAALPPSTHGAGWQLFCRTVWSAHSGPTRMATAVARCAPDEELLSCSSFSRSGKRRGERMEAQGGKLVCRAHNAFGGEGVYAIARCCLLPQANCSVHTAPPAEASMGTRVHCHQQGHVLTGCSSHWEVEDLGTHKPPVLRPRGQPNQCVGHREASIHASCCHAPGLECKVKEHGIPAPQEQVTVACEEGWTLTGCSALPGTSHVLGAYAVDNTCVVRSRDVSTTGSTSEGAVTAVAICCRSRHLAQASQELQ
PCSK9/LDLR PPI, sequence (Q8NBP7 31-152 partner limits assumed): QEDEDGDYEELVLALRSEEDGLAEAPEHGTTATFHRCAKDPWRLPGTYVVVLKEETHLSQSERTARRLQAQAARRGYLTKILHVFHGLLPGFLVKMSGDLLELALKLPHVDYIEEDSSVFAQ

inhibition at 10 µM [1] | IC50 ([1]; dose-dependent IC50 plot, Figure 3, read-out: PCSK9 IC50 (inhibition of PCSK9/LDLR PPI)) | Structure (SMILES) | inhibition at 10 µM [2]
27.2 ± 1.85% |  | COc1cc(NC(=O)c2ccc(-c3cc4c(cc3NC(=O)c3ccc(F)cc3)OCO4)cc2)cc(OC)c1OC [A1, 4-Fluoro-N-(6-(4-((3,4,5-trimethoxyphenyl)carbamoyl)phenyl)benzo[d][1,3]dioxol-5-yl)benzamide] | 12.5 ± 1.06%
7.83 ± 0.26% |  | CCc1ccc(C(=O)Nc2cc3c(cc2-c2ccc(C(=O)Nc4cc(OC)c(OC)c(OC)c4)cc2)OCO3)cc1 [A14, 4-Ethyl-N-(6-(4-((3,4,5-trimethoxyphenyl)carbamoyl)phenyl)benzo[d][1,3]dioxol-5-yl)benzamide] | 5.21 ± 0.16%
7.91 ± 0.71% |  | COc1cc(NC(=O)c2ccc(-c3cc4c(cc3NC(=O)c3ccc(C#N)cc3)OCO4)cc2)cc(OC)c1OC [A17, 4-Cyano-N-(6-(4-((3,4,5-trimethoxyphenyl)carbamoyl)phenyl)benzo[d][1,3]dioxol-5-yl)benzamide] | 3.84 ± 0.11%
25.5 ± 2.22% |  | O=C(Nc1ccc(Br)cc1)c1ccc(-c2cc3c(cc2NC(=O)c2ccc(CCl)cc2)OCO3)cc1 [B2, N-(4-bromophenyl)-4-(6-(4-(chloromethyl)benzamido)benzo[d][1,3]dioxol-5-yl)benzamide] | 15.6 ± 1.24%
6.18 ± 0.08% |  | COc1ccc(NC(=O)c2ccc(-c3cc4c(cc3NC(=O)c3ccc(CCl)cc3)OCO4)cc2)cc1 [B5, 4-(Chloromethyl)-N-(6-(4-((4-methoxyphenyl)carbamoyl)phenyl)benzo[d][1,3]dioxol-5-yl)benzamide] | 7.22 ± 0.15%
6.97 ± 0.43% |  | CCOc1ccc(NC(=O)c2ccc(-c3cc4c(cc3NC(=O)c3ccc(CCl)cc3)OCO4)cc2)cc1 [B6, 4-(Chloromethyl)-N-(6-(4-((4-ethoxyphenyl)carbamoyl)phenyl)benzo[d][1,3]dioxol-5-yl)benzamide] | 7.04 ± 0.27%
16.3 ± 0.62% |  | COc1ccc(NC(=O)c2ccc(-c3cc4c(cc3NC(=O)c3ccc(CCl)cc3)OCO4)cc2)cc1OC [B7, 4-(Chloromethyl)-N-(6-(4-((3,4-dimethoxyphenyl)carbamoyl)phenyl)benzo[d][1,3]dioxol-5-yl)benzamide] | 5.45 ± 0.39%
3.15 ± 0.02% |  | Cc1ccc(NC(=O)c2ccc(-c3cc4c(cc3NC(=O)c3ccc(CCl)cc3)OCO4)cc2)cc1 [B8, 4-(Chloromethyl)-N-(6-(4-(p-tolylcarbamoyl)phenyl)benzo[d][1,3]dioxol-5-yl)benzamide] | 3.35 ± 0.16%
3.36 ± 0.23% |  | CCc1ccc(NC(=O)c2ccc(-c3cc4c(cc3NC(=O)c3ccc(CCl)cc3)OCO4)cc2)cc1 [B9, 4-(Chloromethyl)-N-(6-(4-((4-ethylphenyl)carbamoyl)phenyl)benzo[d][1,3]dioxol-5-yl)benzamide] | 6.36 ± 0.42%
5.87 ± 0.01% |  | CCCCCc1ccc(NC(=O)c2ccc(-c3cc4c(cc3NC(=O)c3ccc(CCl)cc3)OCO4)cc2)cc1 [B10, 4-(Chloromethyl)-N-(6-(4-((4-pentylphenyl)carbamoyl)phenyl)benzo[d][1,3]dioxol-5-yl)benzamide] | 2.4 ± 0.19%
6.92 ± 0.53% |  | O=C(Nc1ccc(-c2ccccc2)cc1)c1ccc(-c2cc3c(cc2NC(=O)c2ccc(CCl)cc2)OCO3)cc1 [B11, N-([1,1′-biphenyl]-4-yl)-4-(6-(4-(chloromethyl)benzamido)benzo[d][1,3]dioxol-5-yl)benzamide] | 3.26 ± 0.22%
5.16 ± 0.2% |  | O=C(Nc1ccc2c(c1)OCCO2)c1ccc(-c2cc3c(cc2NC(=O)c2ccc(CCl)cc2)OCO3)cc1 [B12, 4-(Chloromethyl)-N-(6-(4-((2,3-dihydrobenzo[b][1,4]dioxin-6-yl)carbamoyl)phenyl)benzo[d][1,3]dioxol-5-yl)benzamide] | 5.76 ± 0.24%
5.64 ± 0.04% |  | O=C(Nc1cc2c(cc1-c1ccc(C(=O)N3CCN(c4ccccc4)CC3)cc1)OCO2)c1ccc(CCl)cc1 [B13, 4-(Chloromethyl)-N-(6-(4-(4-phenylpiperazine-1-carbonyl)phenyl)benzo[d][1,3]dioxol-5-yl)benzamide] | 3.21 ± 0.26%
7.22 ± 0.71% |  | CCc1ccc(N2CCN(C(=O)c3ccc(-c4cc5c(cc4NC(=O)c4ccc(CCl)cc4)OCO5)cc3)CC2)cc1 [B15, 4-(Chloromethyl)-N-(6-(4-(4-(4-ethylphenyl)piperazine-1-carbonyl)phenyl)benzo[d][1,3]dioxol-5-yl)benzamide] | 8.91 ± 0.62%
7.94 ± 0.03% |  | O=C(Nc1cc2c(cc1-c1ccc(C(=O)N3CCN(c4ccc(Cl)cc4)CC3)cc1)OCO2)c1ccc(CCl)cc1 [B16, 4-(Chloromethyl)-N-(6-(4-(4-(4-chlorophenyl)piperazine-1-carbonyl)phenyl)benzo[d][1,3]dioxol-5-yl)benzamide] | 10.2 ± 0.91%

Continued, molecule first:

Structure (SMILES) | inhibition at 10 µM [1] | IC50 ([1]; dose-dependent IC50 plot, Figure 3, read-out: PCSK9 IC50 (inhibition of PCSK9/LDLR PPI)) | inhibition at 10 µM [2]
COc1cc(NC(=O)c2ccc(-c3cc4c(cc3NC(=O)c3ccc(C(F)(F)F)cc3)OCO4)cc2)cc(OC)c1OC [A2, 4-(Trifluoromethyl)-N-(6-(4-((3,4,5-trimethoxyphenyl)carbamoyl)phenyl)benzo[d][1,3]dioxol-5-yl)benzamide] | 23.1 ± 2.17% |  | 16.4 ± 1.55%
COc1cc(NC(=O)c2ccc(-c3cc4c(cc3NC(=O)c3ccccc3)OCO4)cc2)cc(OC)c1OC [A3, 4-(6-Benzamidobenzo[d][1,3]dioxol-5-yl)-N-(3,4,5-trimethoxyphenyl)benzamide] | 5.06 ± 0.09% |  | 8.78 ± 0.37%
COc1cc(NC(=O)c2ccc(-c3cc4c(cc3NC(=O)c3ccccc3C(F)(F)F)OCO4)cc2)cc(OC)c1OC [A4, 2-(Trifluoromethyl)-N-(6-(4-((3,4,5-trimethoxyphenyl)carbamoyl)phenyl)benzo[d][1,3]dioxol-5-yl)benzamide] | 5.28 ± 0.4% |  | 7.93 ± 1.04%
COc1cc(NC(=O)c2ccc(-c3cc4c(cc3NC(=O)c3ccccc3F)OCO4)cc2)cc(OC)c1OC [A5, 2-Fluoro-N-(6-(4-((3,4,5-trimethoxyphenyl)carbamoyl)phenyl)benzo[d][1,3]dioxol-5-yl)benzamide] | 4.77 ± 0.31% |  | 5.96 ± 0.66%
COc1ccc(C(=O)Nc2cc3c(cc2-c2ccc(C(=O)Nc4cc(OC)c(OC)c(OC)c4)cc2)OCO3)cc1 [A6, 4-Methoxy-N-(6-(4-((3,4,5-trimethoxyphenyl)carbamoyl)phenyl)benzo[d][1,3]dioxol-5-yl)benzamide] | 5.92 ± 0.52% |  | 5.9 ± 0.42%
COc1cc(NC(=O)c2ccc(-c3cc4c(cc3NC(=O)c3ccccc3Cl)OCO4)cc2)cc(OC)c1OC [A7, 2-Chloro-N-(6-(4-((3,4,5-trimethoxyphenyl)carbamoyl)phenyl)benzo[d][1,3]dioxol-5-yl)benzamide] | 5.16 ± 0.31% |  | 12.4 ± 1.07%
COc1cc(NC(=O)c2ccc(-c3cc4c(cc3NC(=O)c3cccc(Br)c3)OCO4)cc2)cc(OC)c1OC [A8, 3-Bromo-N-(6-(4-((3,4,5-trimethoxyphenyl)carbamoyl)phenyl)benzo[d][1,3]dioxol-5-yl)benzamide] | 5.88 ± 0.12% |  | 3.66 ± 0.24%
COc1cc(NC(=O)c2ccc(-c3cc4c(cc3NC(=O)c3cccc(F)c3)OCO4)cc2)cc(OC)c1OC [A9, 3-Fluoro-N-(6-(4-((3,4,5-trimethoxyphenyl)carbamoyl)phenyl)benzo[d][1,3]dioxol-5-yl)benzamide] | 22.5 ± 1.36% |  | 11.7 ± 0.88%
COc1ccccc1C(=O)Nc1cc2c(cc1-c1ccc(C(=O)Nc3cc(OC)c(OC)c(OC)c3)cc1)OCO2 [A10, 2-Methoxy-N-(6-(4-((3,4,5-trimethoxyphenyl)carbamoyl)phenyl)benzo[d][1,3]dioxol-5-yl)benzamide] | 3.05 ± 0.05% |  | 4.27 ± 0.16%
COc1cc(NC(=O)c2ccc(-c3cc4c(cc3NC(=O)c3cccc(C(F)(F)F)c3)OCO4)cc2)cc(OC)c1OC [A11, 3-(Trifluoromethyl)-N-(6-(4-((3,4,5-trimethoxyphenyl)carbamoyl)phenyl)benzo[d][1,3]dioxol-5-yl)benzamide] | 35.2 ± 3.15% |  | 7.97 ± 0.08%
COc1cc(NC(=O)c2ccc(-c3cc4c(cc3NC(=O)c3ccccc3C)OCO4)cc2)cc(OC)c1OC [A13, 2-Methyl-N-(6-(4-((3,4,5-trimethoxyphenyl)carbamoyl)phenyl)benzo[d][1,3]dioxol-5-yl)benzamide] | 7.65 ± 0.01% |  | 5.89 ± 0.27%
COc1cc(NC(=O)c2ccc(-c3cc4c(cc3NC(=O)c3cc(F)cc(F)c3)OCO4)cc2)cc(OC)c1OC [A15, 3,5-Difluoro-N-(6-(4-((3,4,5-trimethoxyphenyl)carbamoyl)phenyl)benzo[d][1,3]dioxol-5-yl)benzamide] | 4.76 ± 0.37% |  | 4.63 ± 0.22%
COc1cc(NC(=O)c2ccc(-c3cc4c(cc3NC(=O)c3cc(F)ccc3F)OCO4)cc2)cc(OC)c1OC [A16, 2,5-Difluoro-N-(6-(4-((3,4,5-trimethoxyphenyl)carbamoyl)phenyl)benzo[d][1,3]dioxol-5-yl)benzamide] | 4.22 ± 0.25% |  | 3.33 ± 0.23%
O=C(Nc1cccc(-c2nc3ccccc3o2)c1)c1ccc(NC(=O)c2cc3ccccc3o2)cc1 [SBC-115337, reference compound] |  | 12.9 µM | 
